The source of these data is patent publication US11053239B2, “Compounds as BLC-2-selective apoptosis-inducing agents” (Fochon Pharmaceuticals, Ltd., priority 2017, dated 2021).

The test system of one experiment is RS4; 11 cells. The experiment is described as follows: Cell proliferation assay (MTS), RS4; 11 cells. As to conditions: Homo sapiens, RS4-11, 72 h, RS4; 11 (ATCC CRL-1873) cell proliferation, 30000 cells/well, 72 h, MTS; mechanism-based readout of Bcl-2 inhibition; read-out: RS4; 11 IC50. Type of experiment: cell-based. The source says: (§1) MTS testing kit was purchased from Promega. The RPMI-1640, Fetal bovine serum and Penicillin-Streptomycin were purchased from Gibco. Dimethyl sulfoxide (DMSO) was purchased from Sigma.
(§2) To investigate whether a compound is able to inhibit the activity of Bcl-2 in cells, a mechanism-based assay using DOHH2 (DSMZ No.® ACC 47) and RS4; 11 (ATCC® CRL-1873™) cell was developed. In this assay, inhibition of Bcl-2 was detected by the inhibition of DOHH2 and RS4; 11 cells proliferation. DOHH2 and RS4; 11 cells were cultured in culture flasks to 40-80% confluence in RPMI-1640 plus 10% fetal bovine serum. Cells were collected and plated onto 96-well plates at desired cell density (DOHH2: 5000 cells/well; RS4; 11: 30000 cells/well). Plates were incubated overnight at 37° C., with 5% CO2 to adhere. Compounds were added to the plates, and the final compound concentrations were 10000, 3333, 1111, […], 124, 41, 14, 4.6 and 1.5 nM. Plates plated with DOHH2 or RS4; 11 cells were placed at 37° C., with 5% CO2 for 120 h (DOHH2) or 72 h (RS4; 11) respectively. 20 μl MTS/100 μl medium mixture solution were added to each well and incubate the plates for exactly 2 hours. The reaction was stopped by adding 25 μl 10% SDS per well. Measure absorbance at 490 nm and 650 nm (reference wavelength). ICso was calculated using GraphPad Prism 5.0.

The next experiment deals with DOHH2 cells. The experiment is described as follows: Cell proliferation assay (MTS), DOHH2 cells. In kind it is cell-based. As to conditions: Homo sapiens, DOHH-2, 120 h, DOHH2 (DSMZ ACC 47) cell proliferation, 5000 cells/well, 120 h, MTS; mechanism-based readout of Bcl-2 inhibition; read-out: DOHH2 IC50.
From the text: as §1, §2

Take `CC1(C)CCC(CN2CCN(c3ccc(C(=O)NS(=O)(=O)c4ccc(NCC5CCS(=O)(=NC6CC6)CC5)c(S(=O)(=O)C(F)(F)F)c4)c(Oc4cnc5[nH]ccc5c4)c3)CC2)=C(c2ccc(Cl)cc2)C1` (stereo not shown) [Example 8, 2-((1H-pyrrolo[2,3-b]pyridin-5-yl)oxy)-4-(4-((4′-chloro-5,5-dimethyl-3,4,5,6-tetrahydro-[1,1′-biphenyl]-2-yl)methyl)piperazin-1-yl)-N-((4-(((1-(cyclopropylimino)-1-oxidohexahydro-1λ^6-thiopyran-4-yl)methyl)amino)-3-((trifluoromethyl)sulfonyl)phenyl)sulfonyl)benzamide]: the IC50 was found to be 33 nM in the experiment with RS4; 11 cells and 99 nM in the experiment on DOHH2 cells.

With `C[C@@H](CN1CCS(=O)(=NC2CC2)CC1)Nc1ccc(S(=O)(=O)NC(=O)c2ccc(N3CCN(CC4=C(c5ccc(Cl)cc5)CC(C)(C)CC4)CC3)cc2Oc2cnc3[nH]ccc3c2)cc1[N+](=O)[O-]` [Example 39, (S)-2-((1H-pyrrolo[2,3-b]pyridin-5-yl)oxy)-4-(4-((4′-chloro-5,5-dimethyl-3,4,5,6-tetrahydro-[1,1′-biphenyl]-2-yl)methyl)piperazin-1-yl)-N-((4-((1-(1-(cyclopropylimino)-1-oxido-1λ^6-thiomorpholino)propan-2-yl)amino)-3-nitrophenyl)sulfonyl)benzamide], the IC50 turned out to be 40 nM in the experiment with RS4; 11 cells and 163 nM in the experiment on DOHH2 cells.

Regarding `COC(=O)N=S1(=O)CCN(CC[C@H](C)Nc2ccc(S(=O)(=O)NC(=O)c3ccc(N4CCN(CC5=C(c6ccc(Cl)cc6)CC(C)(C)CC5)CC4)cc3Oc3cnc4[nH]ccc4c3)cc2[N+](=O)[O-])CC1` [Example 84, methyl (S)-(4-(3-((4-(N-(2-((1H-pyrrolo[2,3-b]pyridin-5-yl)oxy)-4-(4-((4′-chloro-5,5-dimethyl-3,4,5,6-tetrahydro-[1,1′-biphenyl]-2-yl)methyl)piperazin-1-yl)benzoyl)sulfamoyl)-2-nitrophenyl)amino)butyl)-1-oxido-1λ^6-thiomorpholin-1-ylidene)carbamate], the IC50 with RS4; 11 cells amounted to 11 nM; in the experiment with DOHH2 cells it was 15 nM.

In the case of `CC(C)C(=O)N=S1(=O)CCN(CC[C@H](C)Nc2ccc(S(=O)(=O)NC(=O)c3ccc(N4CCN(CC5=C(c6ccc(Cl)cc6)CC(C)(C)CC5)CC4)cc3Oc3cnc4[nH]ccc4c3)cc2[N+](=O)[O-])CC1` [Example 82, (S)-2-((1H-pyrrolo[2,3-b]pyridin-5-yl)oxy)-4-(4-((4′-chloro-5,5-dimethyl-3,4,5,6-tetrahydro-[1,1′-biphenyl]-2-yl)methyl)piperazin-1-yl)-N-((4-((4-(1-(isobutyrylimino)-1-oxido-1λ^6-thiomorpholino)butan-2-yl)amino)-3-nitrophenyl)sulfonyl)benzamide], the IC50 in the experiment on RS4; 11 cells is 10 nM; in the experiment on DOHH2 cells, 18 nM.

In the case of `CC(=O)N=S1(=O)CCN(CCNc2ccc(S(=O)(=O)NC(=O)c3ccc(N4CCN(CC5=C(c6ccc(Cl)cc6)CC(C)(C)CC5)CC4)cc3Oc3cnc4[nH]ccc4c3)cc2[N+](=O)[O-])CC1` [Example 37, 2-((1H-pyrrolo[2,3-b]pyridin-5-yl)oxy)-N-((4-((2-(1-(acetylimino)-1-oxido-1λ^6-thiomorpholino)ethyl)amino)-3-nitrophenyl)sulfonyl)-4-(4-((4′-chloro-5,5-dimethyl-3,4,5,6-tetrahydro-[1,1′-biphenyl]-2-yl)methyl)piperazin-1-yl) benzamide], the IC50 with RS4; 11 cells came out at 12 nM; in the experiment with DOHH2 cells it was 228 nM.

As for `CC1(C)CCC(CN2CCN(c3ccc(C(=O)NS(=O)(=O)c4ccc(NCC5CCC(N=S6(=O)CCOCC6)CC5)c(S(=O)(=O)C(F)(F)F)c4)c(Oc4cnc5[nH]ccc5c4)c3)CC2)=C(c2ccc(Cl)cc2)C1` (stereo not shown) [Example 55, 2-((1H-pyrrolo[2,3-b]pyridin-5-yl)oxy)-4-(4-((4′-chloro-5,5-dimethyl-3,4,5,6-tetrahydro-[1,1′-biphenyl]-2-yl)methyl)piperazin-1-yl)-N-((4-(((4-((4-oxido-1,4λ^6-oxathian-4-ylidene)amino)cyclohexyl)methyl)amino)-3-((trifluoromethyl)sulfonyl)phenyl)sulfonyl) benzamide], the IC50 with RS4; 11 cells is 231 nM; with DOHH2 cells, 346 nM.

For `CC1(C)CCC(CN2CCN(c3ccc(C(=O)NS(=O)(=O)c4ccc(NCC5CCS(=N)(=O)CC5)c([N+](=O)[O-])c4)c(Oc4cnc5[nH]ccc5c4)c3)CC2)=C(c2ccc(Cl)cc2)C1` (stereo not shown) [Example 28, 2-((1H-pyrrolo[2,3-b]pyridin-5-yl)oxy)-4-(4-((4′-chloro-5,5-dimethyl-3,4,5,6-tetrahydro-[1,1′-biphenyl]-2-yl)methyl)piperazin-1-yl)-N-((4-(((1-imino-1-oxidohexahydro-1λ^6-thiopyran-4-yl)methyl)amino)-3-nitrophenyl)sulfonyl) benzamide], in the experiment with RS4; 11 cells, the IC50 was determined as 122 nM.

Regarding `CN=S1(=O)CCN(CCNc2ccc(S(=O)(=O)NC(=O)c3ccc(N4CCN(CC5=C(c6ccc(Cl)cc6)CC(C)(C)CC5)CC4)cc3Oc3cnc4[nH]ccc4c3)cc2[N+](=O)[O-])CC1` [Example 33, 2-((1H-pyrrolo[2,3-b]pyridin-5-yl)oxy)-4-(4-((4′-chloro-5,5-dimethyl-3,4,5,6-tetrahydro-[1,1′-biphenyl]-2-yl)methyl)piperazin-1-yl)-N-((4-((2-(1-(methylimino)-1-oxido-1λ^6-thiomorpholino)ethyl)amino)-3-nitrophenyl)sulfonyl) benzamide], the IC50 in the experiment on RS4; 11 cells turned out to be 101 nM.

Regarding `CC1(C)CCC(CN2CCN(c3ccc(C(=O)NS(=O)(=O)c4ccc(NCCN5CCS(=O)(=NC(=O)C6CC6)CC5)c([N+](=O)[O-])c4)c(Oc4cnc5[nH]ccc5c4)c3)CC2)=C(c2ccc(Cl)cc2)C1` [Example 69, 2-((1H-pyrrolo[2,3-b]pyridin-5-yl)oxy)-4-(4-((4′-chloro-5,5-dimethyl-3,4,5,6-tetrahydro-[1,1′-biphenyl]-2-yl)methyl)piperazin-1-yl)-N-((4-((2-(1-((cyclopropanecarbonyl)imino)-1-oxido-1λ^6-thiomorpholino)ethyl)amino)-3-nitrophenyl)sulfonyl) benzamide], the IC50 with RS4; 11 cells was found to be 165 nM.

Regarding `CC(CNc1ccc(S(=O)(=O)NC(=O)c2ccc(N3CCN(CC4=C(c5ccc(Cl)cc5)CC(C)(C)CC4)CC3)cc2Oc2cnc3[nH]ccc3c2)cc1[N+](=O)[O-])N1CCP(C)(=O)CC1` (stereo not shown) [Example 10, 2-((1H-pyrrolo[2,3-b]pyridin-5-yl)oxy)-4-(4-((4′-chloro-5,5-dimethyl-3,4,5,6-tetrahydro-[1,1′-biphenyl]-2-yl)methyl)piperazin-1-yl)-N-((4-((2-(4-methyl-4-oxido-1,4-azaphosphinan-1-yl)propyl)amino)-3-nitrophenyl)sulfonyl)benzamide], the IC50 in the experiment on RS4; 11 cells stood at 133 nM.

In the case of `CC(Nc1ccc(S(=O)(=O)NC(=O)c2ccc(N3CCN(CC4=C(c5ccc(Cl)cc5)CC(C)(C)CC4)CC3)cc2Oc2cnc3[nH]ccc3c2)cc1[N+](=O)[O-])C1CCS(=O)(=NC2CC2)CC1` (stereo not shown) [Example 62, 2-((1H-pyrrolo[2,3-b]pyridin-5-yl)oxy)-4-(4-((4′-chloro-5,5-dimethyl-3,4,5,6-tetrahydro-[1,1′-biphenyl]-2-yl)methyl)piperazin-1-yl)-N-((4-((1-(1-(cyclopropylimino)-1-oxidohexahydro-1λ^6-thiopyran-4-yl)ethyl)amino)-3-nitrophenyl)sulfonyl) benzamide], in the experiment on RS4; 11 cells, the IC50 came to 160 nM.

For `CC1(C)CCC(CN2CCN(c3ccc(C(=O)NS(=O)(=O)c4ccc(NCCN5CCS(=N)(=O)CC5)c([N+](=O)[O-])c4)c(Oc4cnc5[nH]ccc5c4)c3)CC2)=C(c2ccc(Cl)cc2)C1` [Example 46, 2-((1H-pyrrolo[2,3-b]pyridin-5-yl)oxy)-4-(4-((4′-chloro-5,5-dimethyl-3,4,5,6-tetrahydro-[1,1′-biphenyl]-2-yl)methyl)piperazin-1-yl)-N-((4-((2-(1-imino-1-oxido-1λ^6-thiomorpholino)ethyl)amino)-3-nitrophenyl)sulfonyl) benzamide], in the experiment with RS4; 11 cells, the IC50 was found to be 155 nM.

`CC1(C)CCC(CN2CCN(c3ccc(C(=O)NS(=O)(=O)c4ccc(NCCN5CCS(=O)(=NC#N)CC5)c([N+](=O)[O-])c4)c(Oc4cnc5[nH]ccc5c4)c3)CC2)=C(c2ccc(Cl)cc2)C1` [Example 36, 2-((1H-pyrrolo[2,3-b]pyridin-5-yl)oxy)-4-(4-((4′-chloro-5,5-dimethyl-3,4,5,6-tetrahydro-[1,1′-biphenyl]-2-yl)methyl)piperazin-1-yl)-N-((4-((2-(1-(cyanoimino)-1-oxido-1λ^6-thiomorpholino)ethyl)amino)-3-nitrophenyl)sulfonyl) benzamide]: the IC50 in the experiment with RS4; 11 cells amounted to 232 nM.
